Where “and” joins values, the source holds several entries; their conditions need not be identical. Equal entries are not always repeated. Where two headings read alike, the source gives them in different places.
How the values were obtained:
PATU‐T [1] = assay: SRB chemosensitivity assay, PATU‐T cells; assay type: cell-based; settings: read-out: IC50 PATU‐T
Method: (§1) Three lines of immortalized PDAC cells were selected as representative phenotypes: mesenchymal (PATU‐T), quasimesenchymal (PANC‐1), and an epithelial clone of SUIT 2 cells (SUIT 2.28). Cells were cultured in noncoated T‐75 and T‐25 flasks under adherent conditions, using 1× DMEM (Gibco, 41,966,029) for PATU‐T and RPMI (Gibco, 21,875,034) for SUIT 2.28 and PANC‐1, both supplemented with 10% NBCS and 1% P/S. Additional employed models were the PDAC3 cells, a primary cell culture, the PSCs, which were immortalized healthy pancreatic cells, and the PATU‐T‐GR, which was a gemcitabine resistant model of PATU‐T. PDAC3 and PSCs were cultivated using complete RPMI medium, while PATU‐T‐GR required complete DMEM medium. For seeding, cells were detached with Trypsin‐EDTA (0.05%) (GibcoTM, 25,300–096) and were consequently counted using the Automated Cell Counter (Luna‐II, Westburg). Cells were then plated on 96‐ or 6‐well plates depending on the planned experiment.
(§2) The Sulforhodamine B (SRB) chemosensitivity assay was used to measure cytotoxicity and cell proliferation post drug treatment. At day 0, 3–6 × 10^3 cells were seeded in a 96‐well plate, depending on the cell line. At day 1, cells were attached and ready to be treated. For the calculation of the IC50, drug dilutions for the compounds 1b, 1c, 1d, 1e, 1g, 1hr, 1i, 1j, and LDC4297 (MedChemExpress, HY‐12,653) were prepared in dilution trays and eight different concentrations were included. These were added in triplicates to the cells, which were then incubated for […] at 37 °C in 5% CO2. During day 1, the control plate was fixed with 50% Trichloroacetic acid (TCA), as intended to be the baseline plate used for the normalization of the data. 72 h post‐treatment, the cells were fixed with TCA, and placed at 4 °C for about 2 h. The plates were then washed with distillated water and left to dry under the hood with ventilation. Subsequently, plates were stained with 0.4% SRB for 15 min and washed with 1% acetic acid to remove excess stain. Once dried again, the protein‐bound SRB was dissolved in 10 mM TRIS, and the plates were placed on a shaker for 10 min per plate. Lastly, the absorbance was measured at 492 nm with a spectrophotometer (Synergy HT, BioTek). The absorbance data obtained were normalized to the day 1 control, and the percentage of cell growth in relation to the control was calculated using the following formula. (1) %Cell growth=Mean OD treatment−Mean OD day0/Mean OD control−Mean OD day0×100
(§3) The percentage of proliferation and their respective standard deviations were used to perform statistical analysis in GraphPad Prism software v 10 (GraphPad Software, San Diego, CA). Data were normalized to the day 0 control and to their own untreated 72 h control. These were transformed into logarithmic data, and log(inhibitor) versus response analysis was performed for obtaining the IC50 values per cell lines. Each experiment was conducted in triplicates.

PDAC3 [2] = assay: SRB chemosensitivity assay, primary PDAC3 cells; assay type: cell-based
Method: as §1, §2, §3

PATU‐T GR = assay: SRB chemosensitivity assay, gemcitabine resistant PATU‐T GR cells; assay type: cell-based
Method: as §1, §2
The percentage of proliferation and their respective standard deviations were used to perform statistical analysis in GraphPad Prism software v 10 (GraphPad Software, San Diego, CA). Data were normalized to the day 0 control and to their own untreated 72 h control. […]

PSC = assay: SRB chemosensitivity assay, pancreatic stellate cells (PSC); assay type: cell-based; settings: Fibroblast, read-out: IC50 PSC
Method: as §1
as §2, with “The plates were then washed with distillated water and left to dry under the hood with ventilation. Subsequently, plates were stained with 0.4% SRB for 15 min and washed with 1% acetic acid to remove excess stain. Once dried again, the protein‐bound SRB was dissolved in 10 mM TRIS, and the plates were placed on a shaker for 10 min per plate.” left out, “(1) %Cell growth=Mean OD treatment−Mean OD day0/Mean OD control−Mean OD day0×100” left out

PATU‐T [3] = assay: Wound healing assay, PATU‐T; assay type: cell-based; settings: 1 × IC50 and 4 × IC50, 4 to 24 h
Method: The wound healing assay was used to test the migratory ability of the selected cells post‐treatment. Cells (5 × 10^4 /well) were seeded on 96‐well. After 24 h, cells reached the optimal 100% confluency, and an artificial wound was created with a 96‐well Pintool Scratcher. The cells were immediately washed with complete medium, in order to remove cell debris after the scratch, and images of the wells were captured at time 0 h, right before the addition of the treatment. Each drug (1b and 1g) was previously diluted in the respective medium at two different concentrations: 1 × IC50 and 4 × IC50 (according to the cell specific IC50 value) and were then added to the cells. Images were then taken at timepoints 4, 8, 20, and 24 h using the Leica microscope with a JAI TMC‐137 camera to assess wound closure. The images were analyzed using the Universal Grab 6.3 software (DCILabs), and the obtained data were used to determine the percentage of migration of the cells, using the following formula. (2) % Migration=Mean width of the wound atT=0−Mean width of the wound atT=X/Mean width of the wound atT=0×100

PDAC3 [4] = assay: Annexin V apoptosis assay, PDAC3; assay type: cell-based; settings: 1 × IC50
Method: In order to investigate the apoptotic properties of the compounds 1b and 1g, the Annexin V apoptosis assay was performed. Annexins are calcium‐dependent phospholipid binding proteins, which are able to bind to phosphatidylserine (PS). The externalization of PS residues on the outer membrane of apoptotic cells can be detected by Annexin V.
For this assay, cells were seeded in a 96‐well plate at a concentration of 13.5 × 10^3 and 4.5 × 10^3 /well respectively for the 24 and 72 h experiments. The next day cells were treated with compounds 1b and 1g at 1 × IC50 and 4 × IC50 concentrations. The apoptosis assay was performed 24 and 72 h post‐treatment following the BD Pharmingen FITC Annexin V Apoptosis Detection Kit I (BD Biosciences, 556,547). The supernatant was aspirated, and cells were washed with phosphate‐buffered saline (PBS). Cells were consequently treated with binding buffer BBA + Annexin V (1:100) and were incubated in the dark at RT for 10 min. The supernatant was removed, and the cells were washed with BBA (1:10). Cells were then incubated with BBA + PI (1:100) and were immediately read with the spectrophotometer at ex. 485/ em. 535. Two different programs were used to read the Annexin V and the PI absorbance. Lastly, 100 µL of PBS were added to each well before being fixed with TCA. This was followed by the SRB assay to standardize fluorescence data according to cell count. Data were exported into GraphPad Prism 10 for statistical analysis.

CDK7 = CDK7 (Homo sapiens, UniProt P50613); assay: In vitro CDK7 enzyme inhibition assay (ADP‐Glo); assay type: biochemical; parameters: purchased Promega Corporation VA7402
Chain of CDK7 (P50613 whole entry): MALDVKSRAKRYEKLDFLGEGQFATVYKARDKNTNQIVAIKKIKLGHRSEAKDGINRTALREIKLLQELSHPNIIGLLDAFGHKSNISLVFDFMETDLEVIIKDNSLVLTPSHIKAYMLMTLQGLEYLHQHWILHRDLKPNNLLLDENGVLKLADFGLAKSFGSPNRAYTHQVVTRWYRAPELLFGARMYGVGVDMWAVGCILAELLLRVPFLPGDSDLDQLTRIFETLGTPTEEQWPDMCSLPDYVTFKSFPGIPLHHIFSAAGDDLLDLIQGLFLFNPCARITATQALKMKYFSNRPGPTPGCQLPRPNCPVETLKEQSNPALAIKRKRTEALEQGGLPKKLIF
Chain of CDK7 (P51946 whole entry partner): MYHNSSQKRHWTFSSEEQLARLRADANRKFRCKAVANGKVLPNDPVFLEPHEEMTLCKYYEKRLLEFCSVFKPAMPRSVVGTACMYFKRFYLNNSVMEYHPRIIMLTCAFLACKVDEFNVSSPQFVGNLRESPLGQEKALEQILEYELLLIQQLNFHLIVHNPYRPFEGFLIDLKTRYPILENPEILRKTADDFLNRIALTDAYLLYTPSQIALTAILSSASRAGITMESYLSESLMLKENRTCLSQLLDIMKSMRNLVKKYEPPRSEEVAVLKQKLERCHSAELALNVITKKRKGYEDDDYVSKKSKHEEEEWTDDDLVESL
Chain of CDK7 (P51948 whole entry partner): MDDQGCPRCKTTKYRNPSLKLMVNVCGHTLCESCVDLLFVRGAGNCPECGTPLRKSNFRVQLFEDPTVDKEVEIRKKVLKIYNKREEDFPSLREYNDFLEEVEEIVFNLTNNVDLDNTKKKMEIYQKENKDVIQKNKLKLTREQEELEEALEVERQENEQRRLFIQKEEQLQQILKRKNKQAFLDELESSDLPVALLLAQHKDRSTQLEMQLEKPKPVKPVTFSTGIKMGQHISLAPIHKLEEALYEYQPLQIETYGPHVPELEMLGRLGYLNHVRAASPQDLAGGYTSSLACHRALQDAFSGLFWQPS
Method: The CDK7 enzyme inhibition assay was conducted using the ADP‐Glo Kinase Assay (VA7402, Promega Corporation, Madison, WI, USA) according to the manufacturer's instructions. In this assay, CDK7 catalyzes the conversion of ATP to ADP. The reaction was terminated by adding the ADP‐Glo reagent, which depletes residual ATP. Subsequently, the kinase detection reagent was introduced to convert ADP back into ATP, which was then measured via a luciferase reaction, producing luminescence. The assay was carried out at room temperature, using DMSO as the solvent for the tested compounds. Each compound was tested at eight different concentrations. […] Luminescence was recorded using a BioTek plate reader (BioTek Instruments Inc.), as previously described.^[ [39] ^] The percentage of enzyme inhibition was determined for each compound at different concentrations, and mean IC50 values of triplicate experiments were calculated using GraphPad Prism.

Row | IC50 (CDK7; ADP‐Glo assay, mean of triplicate experiments, read-out: CDK7 inhibition activity IC50) | SMILES | IC50 (PATU‐T [1]; SRB, 72 h of treatment, average ± SEM, triplicate) | IC50 (PDAC3 [2]; PDAC-3, SRB, primary cell line, average ± SEM, triplicate, read-out: IC50 PDAC3) | IC50 (PDAC3 [2]; SRB, primary cell line, average ± SEM, triplicate, read-out: IC50 PDAC3) | IC50 (PATU‐T GR; SRB, gemcitabine resistant PATU‐T GR, average ± SEM, triplicate; read-out: IC50 PATU‐GR) | IC50 (PSC; SRB, nontumorous immortalized pancreatic fibroblasts, average ± SEM, triplicate) | inhibition of cell migration (PATU‐T [3]) | apoptotic index (PDAC3 [4]; PDAC3, 24 h) | apoptotic index (PDAC3 [4]; PDAC3, 72 h) | IC50 (PATU‐T [1]; 72 h) | IC50 (PDAC3 [2]; PDAC-3, read-out: IC50 PDAC3, SRB, primary cell line, average ± SEM, triplicate) | IC50 (PDAC3 [2]; read-out: IC50 PDAC3, SRB, primary cell line, average ± SEM, triplicate) | IC50 (PATU‐T GR; read-out: IC50 PATU‐GR, SRB, gemcitabine resistant PATU‐T GR, average ± SEM, triplicate) | IC50 (PATU‐T GR; read-out: IC50 PATU‐GR; SRB, gemcitabine resistant PATU‐T GR, average ± SEM, triplicate) | IC50 (PSC) | IC50 (CDK7)
1 | 0.025 µM | Nc1ncnc2cc(-c3c[nH]c4ccc(Br)cc34)nn12 [Compound 1b, 7‐(5‐Bromo‐1H‐indol‐3‐yl)pyrazolo[1,5‐a][1,3,5]triazin‐4‐amine] | 1.4 ± 0.2 µM | 1.27 µM | 1.3 ± 0.2 µM | 1.92 µM and 1.9 µM | 6.6 ± 0.7 µM | greatest inhibitory effect | significant increase in apoptotic index | continued to show a significant rise |  |  |  |  |  |  | 
2 |  | Cn1cc(-c2cc3ncnc(N)n3n2)c2cc(Br)ccc21 [Compound 1g, 7‐(5‐Bromo‐1‐methyl‐1H‐indol‐3‐yl)pyrazolo[1,5‐a][1,3,5]triazin‐4‐amine] |  |  |  |  |  |  | significant increase in apoptotic index | continued to show a significant rise | 1.3 ± 0.1 µM | 0.684 µM | 0.7 ± 0.1 µM | 2.7 µM | 2.7 ± 0.5 µM | 5.3 ± 1.1 µM | 0.028 µM

From PMC12503906, “Novel Pyrazolo [1,5‐a]−1,3,5‐Triazine Derivatives as CDK7 Inhibitors: Synthesis and Biological Insights in Pancreatic Ductal Adenocarcinoma Models” (Chemmedchem, 2025)
